Assays:
[1] = biological target: T1, human D3 dopamine receptor (Homo sapiens, UniProt P35462); test: Radioligand binding to cloned human D3 receptor ([3H]-spiperone); conditions: first value of D3/5HT2A/D2; membranes of transfected HEK-293 EBNA cells, 0.5 nM [3H]-spiperone, 1 h at RT
T1 construct: expressed in transfected cells; host or cells: HEK-293 EBNA cells (transient transfection; membrane preparation)
Experimental: (§1) The ability of compounds of the present invention to bind to the 5-HT2A, D3 and D2 receptors was determined using radioligand binding to cloned receptors selectively expressed in HEK-293 EBNA cells.
(§2) Membrane Preparation for Human D2, Human D3 and Human 5-HT2A Receptors
(§3) HEK-293 EBNA cells were transiently transfected with expression plasmids encoding for the human D2 or D3 dopamine- or for the human 5-HT2A serotonin receptor, respectively. The cells were harvested 48 hours post-transfection, washed three times with cold phosphate buffered saline (PBS) and stored at −80° C. prior to use. The pellet was suspended in cold 50 mM Tris-HCl buffer containing 10 mM EDTA (pH 7.4) and homogenized with a Polytron (Kinematica AG, Basel, Switzerland) for 20-30 seconds at 12.000 rpm. After centrifugation at 48.000×g for 30 minutes at 4° C., the pellet was resuspended in cold 10 mM Tris-HCl buffer containing 0.1 mM EDTA (pH 7.4), homogenized, and centrifuged as above. This pellet was further resuspended in a smaller volume of ice cold 10 mM Tris-HCl buffer containing 0.1 mM EDTA (pH 7.4) and homogenized with a Polytron for 20-30 sec at 12.000 rpm. The protein content of this homogenate was determined with the Bio-Rad (Bradford) Protein Assay (Biorad Laboratories GmbH, München, Germany) according to the instructions of the manufacturer using gamma globulin as the standard. This homogenate was stored at −80° C. in aliquots and thawed immediately prior to use.
(§4) Radioligand Binding Assay Conditions
(§5) Aliquots of membrane preparations were thawed at room temperature, resuspended in assay buffer (D2, D3: 50 mM Tris-HCl, 120 mM NaCl, 5 mM MgCl2, 1 mM EDTA, 5 mM KCl, 1.5 mM CaCl2, pH=7.4; 5-HT2A: 50 mM Tris-HCl, 10 mM MgCl2, 1 mM EGTA, pH=7.4), homogenized with a Polytron for 20-30 seconds at 12.000 rpm and adjusted to a final concentration of approximately 7.5 μg protein/well (D2, D3) and 15 μg protein/well (5-HT2A), respectively.
(§6) The binding affinity (Ki) of the compounds was determined using radioligand binding. Membranes were incubated in a total volume of 200 μl with a fixed concentration of radioligand (final concentration approximately 0.7 nM [^3H]-spiperone for D2, 0.5 nM [^3H]-spiperone for D3, and 1.1 nM [^3H]-ketanserin for 5-HT2A) and ten concentrations of test compound ranging between 10 μM-0.1 nM for 1 h at RT. At the end of the incubation, the reaction mixtures were filtered on to unifilter 96-well white microplates with bonded GF/C filters (Packard BioScience, Zudrich, Switzerland; preincubated for 1 h in 0.1% polyethylenimine (PEI) in assay buffer) with a Filtermate 196 harvester (Packard BioScience) and washed 3 times with cold assay buffer. The nonspecific binding was determined with equally composed reaction mixtures in the presence of 10 μM unlabelled spiperone. Per well 45 μl of Microscint 40 (Perkin Elmer, Schwerzenbach, Switzerland) was added, plates for sealed, shaken for 20 min and counted for 3 minutes on a Topcount Microplate Scintillation Counter (Can berra Packard SA, Zu-rich, Switzerland) with quenching correction.
(§7) The CPM value for each duplicate of a concentration of competing compound was averaged (y1), then the % specific binding was calculated according to the equation (((y1−non-specific)/(total binding-non-specific))×100). Graphs were plotted with the % specific binding using XLfit, a curve fitting program that iteratively plots the data using Levenburg Marquardt algorithm. The single site competition analysis equation used was y=A+((B−A)/(1+((x/C)^D))), where y is the % specific binding, A is the minimum y, B is the maximum y, C is the IC50, x is the log10 of the concentration of the competing compound and D is the slope of the curve (the Hill Coefficient). From these curves the IC50 (inhibition concentration at which 50% specific binding of the radioligand was displaced) and Hill coefficient were determined. […]

[2] = biological target: T2, human 5-HT2A serotonin receptor (Homo sapiens, UniProt P28223); test: Radioligand binding to cloned human 5-HT2A receptor ([3H]-ketanserin); conditions: second value of D3/5HT2A/D2; membranes of transfected HEK-293 EBNA cells, 1.1 nM [3H]-ketanserin, 1 h at RT
T2 construct: expressed in transfected cells; host or cells: HEK-293 EBNA cells (transient transfection; membrane preparation)
T2 sequence (P28223 whole entry): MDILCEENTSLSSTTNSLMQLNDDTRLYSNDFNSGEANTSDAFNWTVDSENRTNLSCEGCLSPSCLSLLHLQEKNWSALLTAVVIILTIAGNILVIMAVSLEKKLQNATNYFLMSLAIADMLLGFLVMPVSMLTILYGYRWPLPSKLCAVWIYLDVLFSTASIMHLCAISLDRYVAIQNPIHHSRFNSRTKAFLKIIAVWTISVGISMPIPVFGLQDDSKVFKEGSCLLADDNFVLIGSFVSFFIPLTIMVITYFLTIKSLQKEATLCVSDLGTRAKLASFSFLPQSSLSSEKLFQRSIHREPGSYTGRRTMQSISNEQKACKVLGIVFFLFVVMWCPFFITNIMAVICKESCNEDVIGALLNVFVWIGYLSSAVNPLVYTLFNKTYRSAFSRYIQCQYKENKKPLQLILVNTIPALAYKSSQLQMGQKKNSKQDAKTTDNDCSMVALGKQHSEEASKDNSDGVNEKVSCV
Experimental: as §1, §2, §3, §4, §5, §6, §7

[3] = biological target: T3, human D2 dopamine receptor (Homo sapiens, UniProt P14416); test: Radioligand binding to cloned human D2 receptor ([3H]-spiperone); conditions: third value of D3/5HT2A/D2; membranes of transfected HEK-293 EBNA cells, 0.7 nM [3H]-spiperone, 1 h at RT
T3 construct: expressed in transfected cells; host or cells: HEK-293 EBNA cells (transient transfection; membrane preparation)
T3 sequence (P14416 whole entry): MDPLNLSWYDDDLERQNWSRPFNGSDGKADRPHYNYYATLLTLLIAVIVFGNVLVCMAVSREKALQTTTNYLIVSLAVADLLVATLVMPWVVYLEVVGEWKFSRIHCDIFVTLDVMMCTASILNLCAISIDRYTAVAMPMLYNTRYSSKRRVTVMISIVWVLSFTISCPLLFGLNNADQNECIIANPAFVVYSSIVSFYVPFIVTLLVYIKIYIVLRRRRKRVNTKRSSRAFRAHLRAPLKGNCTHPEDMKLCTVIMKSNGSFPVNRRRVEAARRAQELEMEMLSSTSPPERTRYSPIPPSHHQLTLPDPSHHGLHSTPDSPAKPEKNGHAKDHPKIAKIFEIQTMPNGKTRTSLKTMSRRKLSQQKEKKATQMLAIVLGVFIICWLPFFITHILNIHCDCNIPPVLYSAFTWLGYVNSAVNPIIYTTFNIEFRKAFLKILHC
Experimental: as §1, §2, §3, §4, §5, §6, §7

T1 sequence (P35462 whole entry): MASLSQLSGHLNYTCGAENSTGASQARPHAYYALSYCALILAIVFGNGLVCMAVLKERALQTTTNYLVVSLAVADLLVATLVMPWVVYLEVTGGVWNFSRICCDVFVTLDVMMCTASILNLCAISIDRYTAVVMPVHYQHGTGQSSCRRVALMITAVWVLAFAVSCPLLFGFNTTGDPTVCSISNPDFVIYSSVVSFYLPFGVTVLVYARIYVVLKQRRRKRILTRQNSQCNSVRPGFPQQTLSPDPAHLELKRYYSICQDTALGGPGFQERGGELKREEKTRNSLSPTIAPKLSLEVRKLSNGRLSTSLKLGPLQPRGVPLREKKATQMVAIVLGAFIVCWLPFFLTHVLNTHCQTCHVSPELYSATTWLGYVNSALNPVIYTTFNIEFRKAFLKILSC

**Q.** Which results are given for O=C(Nc1ccc(Cl)cc1)N[C@H]1CC[C@H](CCN2CCC(Oc3ccc(F)cc3)CC2)CC1 [Example 9, Trans-1-(4-Chloro-phenyl)-3-(4-{2-[4-(4-fluoro-phenoxy)-piperidin-1-yl]-ethyl}-cyclohexyl)-urea]?
**A.** Ki [1]: 14 nM; Ki [2]: 13 nM; Ki [3]: 574 nM

**Q.** CC(=O)N[C@H]1CC[C@H](CCN2CCC(Oc3ccc(Cl)cc3C#N)CC2)CC1 [Example 62, N-trans-(4-{2-[4-(4-Chloro-2-cyano-Phenoxy)-piperidin-1-yl]-ethyl}-cyclohexyl)-acetamide] was tested. Which Ki [1] did it give?
**A.** Its Ki is 100 nM.

**Q.** What about the Ki [2] of the same molecule?
**A.** The Ki was 43 nM.

**Q.** What about the Ki [3] of the same molecule?
**A.** The Ki was 3320 nM.

**Q.** How did the Ki [1] turn out when O=C(N[C@H]1CC[C@H](CCN2CCC(Oc3ccncc3)CC2)CC1)c1ccnc2ccccc12 [Example 74, Quinoline-4-carboxylic acid (trans-4-{2-[4-(Pyridin-4-yloxy)-piperidin-1-yl]-ethyl}-cyclohexyl)-amide] was run?
**A.** Its Ki is 208 nM.

**Q.** And the Ki [2]?
**A.** Its Ki is 60 nM.

**Q.** What about the Ki [3] of the same molecule?
**A.** Its Ki is 3000 nM.

**Q.** CC(=O)N[C@H]1CC[C@H](CCN2CCC(Oc3ccc(F)cc3)CC2)CC1 [Example 8, Trans N-(4-{2-[4-(4-Fluoro-phenoxy)-piperidin-1-yl]-ethyl}-cyclohexyl)-acetamide] was tested. Which Ki [1] did it give?
**A.** Its Ki is 50 nM.

**Q.** And the Ki [2]?
**A.** The Ki was 31 nM.

**Q.** And the Ki [3]?
**A.** The Ki was 843 nM.

**Q.** Which Ki [1] does the source give for COCCC(=O)N[C@H]1CC[C@H](CCN2CCC(Oc3ccc(F)cc3Cl)CC2)CC1 [Example 13, N-trans (4-{2-[4-(2-Chloro-4-fluoro-phenoxy)-piperidin-1-yl]-ethyl}-cyclohexyl)-3-methoxy-propionamide] here?
**A.** Its Ki is 14 nM.

**Q.** And the Ki [2]?
**A.** The Ki was 3 nM.

**Q.** And the Ki [3]?
**A.** Its Ki is 790 nM.

**Q.** What does the source list for Cc1ccc(NC(=O)N[C@H]2CC[C@H](CCN3CCC(Oc4ccc(F)cc4Cl)CC3)CC2)cc1 [Example 21, 1-trans(4-{2-[4-(2-Chloro-4-fluoro-phenoxy)-piperidin-1-yl]-ethyl}-cyclohexyl)-3-p-tolyl-urea]?
**A.** Ki [1]: 3 nM; Ki [2]: 2 nM; Ki [3]: 697 nM

**Q.** Which Ki [1] does the source give for O=C(N[C@H]1CC[C@H](CCN2CCC(Oc3ccc(F)cc3Cl)CC2)CC1)C1CCOCC1 [Example 15, Tetrahydro-pyran-4-carboxylic acid trans (4-{2-[4-(2-chloro-4-fluoro-phenoxy)-piperidin-1-yl]-ethyl}-cyclohexyl)-amide] here?
**A.** Its Ki is 17 nM.

**Q.** What about the Ki [2] of the same molecule?
**A.** The Ki was 2 nM.

**Q.** What about the Ki [3] of the same molecule?
**A.** The Ki was 556 nM.

**Q.** With CC(=O)N[C@H]1CC[C@H](CCN2CCC(Oc3ccc(F)cc3Cl)CC2)CC1 [Example 19, N-trans(4-{2-[4-(2-Chloro-4-fluoro-phenoxy)-piperidin-1-yl]-ethyl}-cyclohexyl)-acetamide] as the molecule, how does the Ki [1] read?
**A.** Its Ki is 12 nM.

**Q.** And the Ki [2]?
**A.** The Ki was 3 nM.

**Q.** And the Ki [3]?
**A.** The Ki was 683 nM.

**Q.** With O=C(N[C@H]1CC[C@H](CCN2CCC(Oc3ccc(F)cc3Cl)CC2)CC1)c1ccnc2ccccc12 [Example 11, Quinoline-4-carboxylic acid trans(4-{2[4-(2-chloro-4-fluoro-phenoxy)-piperidin-1-yl]-ethyl}-cyclohexyl)-amide] as the molecule, how does the Ki [1] read?
**A.** The Ki was 17 nM.

**Q.** And the Ki [2]?
**A.** The Ki was 2 nM.

**Q.** And the Ki [3]?
**A.** The Ki was 321 nM.

**Q.** Cc1ccc(NC(=O)N[C@H]2CC[C@H](CCN3CCC(Oc4ccc(F)cc4)CC3)CC2)cc1 [Example 10, Trans-1-(4-{2-[4-(4-Fluoro-phenoxy)-piperidin-1-yl]-ethyl}-cyclohexyl)-3-p-tolyl-urea] was tested. Which Ki [1] did it give?
**A.** The Ki was 16 nM.

**Q.** What about the Ki [2] of the same molecule?
**A.** The Ki was 22 nM.

**Q.** What about the Ki [3] of the same molecule?
**A.** The Ki was 592 nM.

**Q.** For O=C(N[C@H]1CC[C@H](CCN2CCC(Oc3ccc(F)cc3F)CC2)CC1)c1ccnc2ccccc12 [Example 24, Quinoline-4-carboxylic acid trans(4-{2-[4-(2,4-difluoro-phenoxy)-piperidin-1-yl]-ethyl}-cyclohexyl)-amide], which Ki [1] is on record?
**A.** Its Ki is 8 nM.

**Q.** And the Ki [2]?
**A.** The Ki was 3 nM.

**Q.** And the Ki [3]?
**A.** The Ki was 453 nM.

**Q.** Which Ki [1] does the source give for O=C(N[C@H]1CC[C@H](CCN2CCC(Oc3cccc(Cl)c3Cl)CC2)CC1)c1ccnc2ccccc12 [Example 72, Quinoline-4-carboxylic acid trans(4-{2-[4-(2,3-dichloro-phenoxy)-piperidin-1-yl]-ethyl}-cyclohexyl)-amide] here?
**A.** Its Ki is 5 nM.

**Q.** And the Ki [2]?
**A.** Its Ki is 9 nM.

**Q.** What about the Ki [3] of the same molecule?
**A.** Its Ki is 319 nM.

**Q.** CCC(=O)N[C@H]1CC[C@H](CCN2CCC(Oc3ccc(F)cc3Cl)CC2)CC1 [Example 18, N-trans (4-{2-[4-(2-Chloro-4-fluoro-phenoxy)-piperidin-1-yl]-ethyl}-cyclohexyl)-propionamide] was tested. Which Ki [1] did it give?
**A.** Its Ki is 5 nM.

**Q.** What about the Ki [2] of the same molecule?
**A.** Its Ki is 2 nM.

**Q.** And the Ki [3]?
**A.** Its Ki is 604 nM.

**Q.** Which results are given for Cc1nc(-c2cccc(C(=O)N[C@H]3CC[C@H](CCN4CCC(Oc5ccc(F)cc5Cl)CC4)CC3)c2)no1 [Example 16, N-trans (4-{2-[4-(2-Chloro-4-fluoro-phenoxy)-piperidin-1-yl]-ethyl}-cyclohexyl)-3-(5-methyl-[1,2,4]oxadiazol-3-yl)-benzamide]?
**A.** Ki [1]: 11 nM; Ki [2]: 5 nM; Ki [3]: 553 nM

**Q.** How did the Ki [1] turn out when COCCC(=O)N[C@H]1CC[C@H](CCN2CCC(Oc3ccc(F)cc3)CC2)CC1 [Example 3, N-(trans-4-{2-[4-(4-Fluoro-phenoxy)-piperidin-1-yl]-ethyl}-cyclohexyl)-3-methoxy-propionamide] was run?
**A.** The Ki was 48 nM.

**Q.** And the Ki [2]?
**A.** Its Ki is 22 nM.

**Q.** What about the Ki [3] of the same molecule?
**A.** Its Ki is 1470 nM.

**Q.** O=C(N[C@H]1CC[C@H](CCN2CCC(Oc3cc(F)c(F)cc3F)CC2)CC1)C1CCOCC1 [Example 51, Tetrahydro-pyran-4-carboxylic acid trans(4-{2-[4-(2,4,5-trifluoro-phenoxy)-piperidin-1-yl]-ethyl}-cyclohexyl)-amide] was tested. Which Ki [1] did it give?
**A.** Its Ki is 29 nM.

**Q.** What about the Ki [2] of the same molecule?
**A.** Its Ki is 36 nM.

**Q.** And the Ki [3]?
**A.** Its Ki is 638 nM.

Reference: patent US7795437B2, “Ether derivatives” (Hoffmann-La Roche Inc., priority 2006, dated 2010)
